Experimental findings from patent US20070184047A1, “Nitrophenyls and related compounds and thimerosal for the inhibition of immune related cell or tissue destruction” (Canadian Blood Services, priority 2005, published 2007) are described below.

In data set [1] the test system is FcγR-mediated phagocytosis of anti-D-coated RBCs by monocyte-macrophages (Mφ). Briefly: Monocyte monolayer assay (MMA): inhibition of phagocytosis of anti-D-sensitized RBCs. The class given is cell-based, human. Particulars: for inhibition of phagocytosis over the test concentration range: 10^−4 down to 10^−9 mol per L. An excerpt:
The test concentration of immunoglobulin (anti-D or IVIg) was chosen after titration of each immunoglobulin on its own to inhibit FcγR and phagocytosis of anti-D-coated RBCs using a monocyte monolayer assay (MMA) as previously described in Rampersad et al., supra and Foo et al., supra. […] The two controls used in these experiments were chemical alone and immunoglobulin alone. For each experiment, the controls and a mixture of chemical and immunoglobulin in phosphate buffered saline (PBS) pH 7.4, were placed in separate tubes (Sarstedt) and gently rotated for 24 hours at room temperature. The solutions were then transferred to respective cellulose dialysis tubing membranes with a molecular size cut off of 12,000 daltons (Sigma-Aldrich) that had been cut to length and washed as per the manufacturer's directions by boiling in a solution containing one mmol/L ethylenediaminetetraacetic acid (EDTA) (BioShop) and 2% sodium bicarbonate (Fisher Scientific) in PBS. Dialysis was performed in large beakers of PBS for 5-7 days at 4° C. with daily changes of PBS.
Preparation of anti-D-sensitized R2R2 red blood cells (RBCs) has been previously described in Rampersad et al., supra and Foo et al., supra. Briefly, RBCs were resuspended in PBS to 5% concentration, mixed with an equal volume of human polyclonal anti-D (Immucor, Tex., Houston, USA) in PBS solution, and then incubated for 1 hour at 37° C. and 5% CO2. After which, the sensitized RBCs were washed four times in PBS and resuspended to 2.5% in PBS. […] The MMA was performed as previously described in Foo et al., supra, without modification.
A phagocytic index was calculated as described in Rampersad et al., supra; Foo et al., supra; and Branch et al., British Journal of Haematology, 1984; 56:19-29, as the unitless number of antibody-sensitized RBCs phagocytosed per 100 Mφ. Residual and phagocytosed RBCs were distinguished by relative differences in refracted light under phase-contrast microscopy. Percent inhibition was calculated as previously described^2 taking the phagocytic control index to be 100. […] Statistical significance of inhibition between treated and untreated Mφ were analysed using Student t-test and Analysis of Variance (ANOVA), and/or, General Linear Model (GLM) Analysis and Student-Newman-Keuls test. A p value of <0.05 was considered to be significant.
As previously described with minor modification, Rampersad et al., Transfusion, 2005; 45:384:93, an aliquot of R2R2 RBCs was removed from storage in Alsever's solution, Walker et al., American Association of Blood Banks, 11th ed., Bethesda, 1993, at 4° C. and washed three times in PBS without calcium or magnesium (Gibco/Invitrogen) at 2000 r.p.m. for 7 minutes (Sorvall RT 6000D centrifuge, Mandel Scientific Company Inc., Guelph, Ontario, Canada). The RBCs were resuspended in PBS to 5 percent concentration, mixed with an equal volume of human anti-D in PBS solution, and then incubated for 1 hour at 37° C. and 5 percent CO2 (Sanyo CO2 incubator), after which the sensitized RBCs were washed four times in PBS at 2000 r.p.m. for 7 minutes and resuspended to 2.5 percent in PBS.
As previously described with slight modification to improve the quality of the Mφ monolayer, Rampersad et al, supra, whole venous blood was drawn from donors into tubes (Vacutainer, ACD solution A, Becton Dickinson Vacutainer Systems, Franklin Lakes, N.J.) and mixed with an equal volume of PBS.

Data set [2] concerns immune-mediated platelet destruction (anti-platelet antibody). Briefly: Model of immune-mediated platelet destruction, treatment at day 2. The class given is in vivo, mice. As to conditions: single dose at day 2 instead of IVIg, anti-platelet antibody continued daily. How it is done:
Referring now to FIGS. 4A through 4C, shown are the results using a model of immune-mediated platelet destruction wherein the anti-platelet antibody is administered on day 0 and daily thereafter. The platelet count fell abruptly after 24 hours (day 1) indicating platelets were destroyed after the antibody was recognized and bound to the platelets. […] In FIGS. 4B and 4C at day 2, instead of IVIg, two mice were administered a single dose of thimerosal or a nitrophenyl compound p-nitrophenyl methyl disulfide (G-B) (FIG. 4C).

The test system is the same in data set [3]. Briefly: Model of immune-mediated platelet destruction, treatment prior to anti-platelet antibody. In kind it is in vivo, mice. Particulars: administered prior to anti-platelet antibody. How it is done:
Referring to FIG. 5, unlike the model in FIG. 4A-4C, the treatment was administered prior to injecting the mice with the anti-platelet antibody.

Data set [4] relates to PBMCs. Briefly: FACS annexin V-FITC/PI analysis for viable and apoptotic PBMCs. The class given is cell-based. Particulars: for effect on PBMC viability or apoptosis: 10^−4 to 10^−9 mol per L, 1 hour; for necrotic cell counts: PBMCs. An excerpt: Fluorescence-activated cell sorting (FACS) analysis (flow cytometry) and a TACS annexin V-fluorescein isothiocyanate (FITC) apoptosis detection kit (R&D Systems, Minneapolis, Minn.) were used to determine if disulfide-containing compounds benzoylmethyl methyl disulfide and phenyl methyl disulfide exert effects on viability or apoptosis of PBMCs. Briefly, PBMCs were isolated from whole blood as previously outlined and treated with culture medium or chemical from 10^−4 to 10^−9 mol per L for 1 hour at 37° C. and 5 percent CO2. They were then washed three times in PBS and collected by centrifugation at 12,000 r.p.m. for 5 to 10 minutes before being incubated in culture medium for 2 hours. After washing the cells once in cold PBS, according to the manufacturer's instructions, cells were then incubated with annexin V-FITC incubation reagent for 15 minutes at room temperature to stain membrane exposed phosphatidylserine, indicating early programmed cell death or apoptosis. Cells were then stained with propidium iodide (PI), specific for nonviable cells, to identify late apoptotic cells. FACS was performed with two-color analysis on a flow cytometer (FACSCalibur E4795, Becton Dickinson, Mississauga, Ontario, Canada) calibrated with fluorescent beads (CaliBRITE, BD Biosciences, San Jose, Calif.) and computer software for data analyses (Cell Quest, BD Biosciences).

In the case of `C[CH2][Hg][S]c1ccccc1C(=O)[O-].[Na+]` [thimerosal], the inhibition of phagocytosis came out at 100% in data set [1] (used alone at 10^−3M, undialyzed) and 100% in data set [1] (used alone at 10^−5M, undialyzed). For the same compound, in data set [1] (used alone at 10^−5M or 10^−3M, after dialysis), the “inhibition of phagocytosis after dialysis” value is recorded as “no longer inhibits phagocytosis after dialysis”. In addition, the “platelet count after treatment” value in data set [2] is “the platelet count began to rise”. Further, the “effect on loss of platelets following anti-platelet antibody” value (from here on “effect on loss”) in data set [3] is listed as “little effect on the subsequent loss of platelets”.

As for `CSSc1ccc([N+](=O)[O-])cc1` [p-nitrophenyl methyl disulfide], in data set [1], the “inhibition of phagocytosis over the test concentration range” value is “inhibited macrophage phagocytosis in vitro in a dose-dependent manner”. Also, the inhibition of phagocytosis is 98.6% in data set [1] (10^−4 mol per L) and 29% in data set [1] (10^−7 mol per L). Moreover, the “platelet count after treatment” value in data set [2] was “the platelet count began to rise”. Besides, the “effect on loss” value in data set [3] is reported as “little effect on the subsequent loss of platelets”.

Regarding `CSSCC(=O)c1ccccc1` [benzoylmethyl methyl disulfide], the “inhibition of phagocytosis over the test concentration range” value in data set [1] is “inhibited phagocytosis in a dose-dependent manner”. In data set [1] (10^−4 mol per L), the inhibition of phagocytosis is listed as 62%. For the same compound, the “effect on PBMC viability or apoptosis” value in data set [4] is given as “do not significantly affect PBMC viability or apoptosis”.

With p-nitrophenylethanol, the “inhibition of phagocytosis over the test concentration range” value in data set [1] is recorded as “None of these compounds were able to inhibit phagocytosis”. Moreover, the “effect on loss” value in data set [3] is given as “zero platelet loss”.

As for `CSSc1ccccc1` [phenyl methyl disulfide], the “inhibition of phagocytosis over the test concentration range” value in data set [1] is listed as “inhibition of phagocytosis in a dose-dependent manner”. Besides, the inhibition of phagocytosis in data set [1] (10^−4 mol per L) is 54%. In addition, the “effect on PBMC viability or apoptosis” value in data set [4] is “do not significantly affect PBMC viability or apoptosis”. Further, the necrotic cell counts in data set [4] (10^−4 mol per L) came out at 2.36%; in data set [4] (10^−5 mol per L), 1.05%.

Regarding `O=[N+]([O-])c1ccccc1` [nitrobenzene, reference compound], the “inhibition of phagocytosis over the test concentration range” value in data set [1] was “None of these compounds were able to inhibit phagocytosis”.

As to `O=C(CS)c1ccccc1` [benzoylmethyl mercaptan], the “inhibition of phagocytosis over the test concentration range” value in data set [1] was “ineffective”.

With `O=[N+]([O-])c1ccc(O)cc1` [p-nitrophenol, reference compound], the “inhibition of phagocytosis over the test concentration range” value in data set [1] is reported as “None of these compounds were able to inhibit phagocytosis”.

For the compound `CSCc1ccc([N+](=O)[O-])cc1` [p-nitrobenzyl methyl sulfide], in data set [1], the “inhibition of phagocytosis over the test concentration range” value is reported as “did not inhibit phagocytosis”.

In the case of `CC(O)c1ccccc1` (stereo not shown) [1-phenylethanol, reference compound], in data set [1], the “inhibition of phagocytosis over the test concentration range” value is recorded as “None of these compounds were able to inhibit phagocytosis”.
